{"source": "patent US20130338130A1", "about": "(priority 2009, published 2013)", "key": {"[1]": {"test_system": "ATCC strain 43300 Staphylococcus aureus", "settings": "ATCC strain 43300 (MRSA); cited from earlier work"}, "[2]": {"test_system": "ATCC strain 43300 Staphylococcus aureus", "settings": "for survival (cfu/ml): 24 hours, triplicate platings", "procedure": "Additional antibiotic was added every 24 hours. The growth periods tested were 24 (FIG. 5), 48, 72, 96 and 120 hours.\n(§1) USP<51> Antimicrobial Effectiveness protocol was used as the template experimental paradigm. […] All concentrations were plated out to the 10^−7 dilutions to ascertain cfu/ml. […] Additional antibiotic was added at the initial concentration every 24 hours.\nATCC strain 43300 Staphylococcus aureus was streaked out for isolations. An isolated colony was chosen, streaked again and incubated. Isolate was chosen and then diluted to a McFarland standard of one. The estimated value was then taken to inoculate tubes containing growth media and 12, 30 or 60 μg/ml methicillin with approximately 10^5 cfu/ml. These tubes were incubated and plated for counting cfu.\nMaterial was calculated on a 10 ml volume. Sterile methicillin was added to each experimental condition to a final concentration of 12, 30 or 60 μg/ml antibiotic. Lactose Broth positive controls both with and without the 12 μg/ml, 30 μg/ml, 60 μg/ml antibiotic were inoculated with MRSA. […] Tubes were set up in singlet, but plated in triplicate, as described below.\nAll tubes were then inoculated with a dilution of the selected ATCC strain 43300 Staphylococcus aureus clone giving a final level of colony forming units of 1.49×10^5/ml (log=5.17). The tubes were incubated at 25° C. and mixed periodically. Antibiotic was re-inoculated every 24 hours at the initial concentration to maintain pressure on the organism. Plating was done at 24, 48, 72, and 120 hours. Each condition was plated by diluting 1 ml of growth material into 9 ml of MLB diluent broth. […] This mixture was serial diluted down to 10^−7 with 1 ml placed in triplicate in a sterile petri dish at each dilution point. 20 mls of TSA was added to each dilution, swirled and allowed to solidify. All dilutions were placed in a 35° C. incubator for 24 to 72 hours. Bacterial colonies on each plate were counted and the average taken then changed into log format. […] Graphs were recorded as log of 5.2 for TNTC to show comparison among the other data points.\nThe tubes were spun down at 5000 rpm for 10 minutes. The supernatant was then decanted into 90 mls of Mueller-Hinton broth with 6 μg/ml methicillin. This is for enrichment and the recovery of any MRSA cells that may be present wether healthy or stressed. The pellet had 10 mls Mueller-Hinton broth with 6 μg/ml methicillin added to it to recover any cells that may be present. Both vessels were incubated at 35° C. for 48 hours and plated each 24 hours. Each vessel was plated at 10 dilutions to obtain a 1 cfu detection limit. Since all vessels were at a 1/10 dilution in the enrichment solution plating each vessel in this manner gave us a detection limit of 1 cfu/ml. […] This time point for graphing purposes will be reported as 0 logs."}, "[3]": {"test_system": "ATCC strain 43300 Staphylococcus aureus", "procedure": "Additional antibiotic was added every 24 hours. The growth periods tested were 24 (see FIG. 4), 48, 72, 96 and 120 hours.\nas §1\nATCC strain 43300 Staphylococcus aureus was streaked out for isolations. An isolated colony was chosen, streaked again and incubated. Isolate was chosen and then diluted to a McFarland standard of one. The estimated value was then taken to inoculate tubes containing growth media and 12, 30 or 60 μg/ml oxacillin with approximately 10^5 cfu/ml. These tubes were incubated and plated for counting cfu. A clone having no observed log reduction in cfu was selected for the rest of the experiment.\nMaterial was calculated on a 10 ml volume. Sterile oxacillin was added to each experimental condition to a final concentration of 12, 30 or 60 μg/ml antibiotic.\nAll tubes were then inoculated with a dilution of the selected ATCC strain 43300 Staphylococcus aureus clone giving a final level of colony forming units of 3.3×10^5/ml (log=5.52). The tubes were incubated at 25° C. and mixed periodically. Antibiotic was re-inoculated every 24 hours at the initial concentration to maintain pressure on the organism. Plating was done at 24, 48, 72, and 120 hours. Each condition was plated by diluting 1 ml of growth material into 9 ml of MLB diluent broth. […] This mixture was serial diluted down to 10^−7 with 1 ml placed in triplicate in a sterile petri dish at each dilution point. 20 mls of TSA was added to each dilution, swirled and allowed to solidify. All dilutions were placed in a 35° C. incubator for 24 to 72 hours. Bacterial colonies on each plate were counted and the average taken then changed into log format. Any cfu/ml observed greater than 3.3×10^5 (log=5.5) were recorded as >3.3×10^5.\nThe tube was then taken out of the experiment and tested for ATCC strain 43300 Staphylococcus growth. The tube was spun down at 5000 rpm for 10 minutes. The supernatant was then decanted into 90 mls of Mueller-Hinton broth with 6 μg/ml oxacillin. This is for enrichment and the recovery of any MRSA cells that may be present whether healthy or stressed. The pellet had 10 mls Mueller-Hinton broth with 6 μg/ml oxacillin added to it to recover any cells that may be present. Both vessels were incubated at 35° C. for 48 hours followed by plating every 24 hours. Each vessel was plated at 10 dilutions to obtain a 1 cfu detection limit."}}, "note": "Where two headings read alike, the source gives them in different places."}
{"smiles": "COc1cccc(OC)c1C(=O)N[C@@H]1C(=O)N2[C@@H]1SC(C)(C)[C@@H]2C(=O)O", "note": "[methicillin, reference compound]", "values": [{"measurement": "MIC", "setting": "[1]", "value": 6, "unit": "µg/mL"}, {"measurement": "survival (cfu/ml)", "setting": "[2]; 12 μg/ml methicillin (re-added every 24 hours) + MSM (% in label), inoculum 1.49×10^5/ml", "value": "TNTC"}, {"measurement": "survival (cfu/ml)", "setting": "[2]; 30 μg/ml methicillin + MSM (% in label)", "value": "TNTC"}, {"measurement": "survival (cfu/ml)", "setting": "[2]; 60 μg/ml methicillin + MSM (% in label)", "value": "TNTC"}, {"measurement": "decrease in colony forming units from the initial inoculums value", "setting": "[2]; methicillin alone, 12 μg/ml, 30 μg/ml and 60 μg/ml", "value": "no significant decrease in colony forming units"}]}
{"smiles": "Cc1onc(-c2ccccc2)c1C(=O)N[C@@H]1C(=O)N2[C@@H]1SC(C)(C)[C@@H]2C(=O)O", "note": "[oxacillin, reference compound]", "values": [{"measurement": "MIC", "setting": "[1]", "value": 6, "unit": "µg/mL"}, {"measurement": "survival (cfu/ml)", "setting": "[3]; 12 μg/ml oxacillin (re-added every 24 hours) + MSM (% in label), 24 hours, three columns = triplicate platings, inoculum 3.3×10^5/ml", "value": ">3.3 × 10^5 cfu/ml"}, {"measurement": "survival, Average Log", "setting": "[3]; 12 μg/ml oxacillin + MSM (% in label), 24 hours", "value": 5.5, "unit": "Log"}, {"measurement": "survival, Average Log", "setting": "[3]; 12 μg/ml oxacillin + MSM (% in label), 48 hours", "value": 5.5, "unit": "Log"}, {"measurement": "survival (cfu/ml)", "setting": "[3]; 12 μg/ml oxacillin + MSM (% in label), 48 hours, triplicate platings", "value": ">3.3 × 10^5 cfu/ml"}, {"measurement": "survival, Average Log", "setting": "[3]; 12 μg/ml oxacillin + MSM (% in label), 72 hours", "value": 5.5, "unit": "Log"}, {"measurement": "survival (cfu/ml)", "setting": "[3]; 12 μg/ml oxacillin + MSM (% in label), 72 hours, triplicate platings", "value": ">3.3 × 10^5 cfu/ml"}, {"measurement": "survival, Average Log", "setting": "[3]; 12 μg/ml oxacillin + MSM (% in label), 96 hours", "value": 5.5, "unit": "Log"}, {"measurement": "survival (cfu/ml)", "setting": "[3]; 12 μg/ml oxacillin + MSM (% in label), 96 hours, triplicate platings", "value": ">3.3 × 10^5 cfu/ml"}, {"measurement": "survival, Average Log", "setting": "[3]; 12 μg/ml oxacillin + MSM (% in label), 120 hours", "value": 5.5, "unit": "Log"}, {"measurement": "survival (cfu/ml)", "setting": "[3]; 12 μg/ml oxacillin + MSM (% in label), 120 hours, triplicate platings", "value": ">3.3 × 10^5 cfu/ml"}, {"measurement": "survival, Average Log", "setting": "[3]; 30 μg/ml oxacillin + MSM (% in label), 24 hours", "value": 5.5, "unit": "Log"}, {"measurement": "survival (cfu/ml)", "setting": "[3]; 30 μg/ml oxacillin + MSM (% in label), 24 hours, triplicate platings", "value": ">3.3 × 10^5 cfu/ml"}, {"measurement": "survival, Average Log", "setting": "[3]; 30 μg/ml oxacillin + MSM (% in label), 48 hours", "value": 5.5, "unit": "Log"}, {"measurement": "survival (cfu/ml)", "setting": "[3]; 30 μg/ml oxacillin + MSM (% in label), 48 hours, triplicate platings", "value": ">3.3 × 10^5 cfu/ml"}, {"measurement": "survival, Average Log", "setting": "[3]; 30 μg/ml oxacillin + MSM (% in label), 72 hours", "value": 5.5, "unit": "Log"}, {"measurement": "survival (cfu/ml)", "setting": "[3]; 30 μg/ml oxacillin + MSM (% in label), 72 hours, triplicate platings", "value": ">3.3 × 10^5 cfu/ml"}, {"measurement": "survival, Average Log", "setting": "[3]; 30 μg/ml oxacillin + MSM (% in label), 96 hours", "value": 5.5, "unit": "Log"}, {"measurement": "survival (cfu/ml)", "setting": "[3]; 30 μg/ml oxacillin + MSM (% in label), 96 hours, triplicate platings", "value": ">3.3 × 10^5 cfu/ml"}, {"measurement": "survival, Average Log", "setting": "[3]; 30 μg/ml oxacillin + MSM (% in label), 120 hours", "value": 5.5, "unit": "Log"}, {"measurement": "survival (cfu/ml)", "setting": "[3]; 30 μg/ml oxacillin + MSM (% in label), 120 hours, triplicate platings", "value": ">3.3 × 10^5 cfu/ml"}, {"measurement": "survival, Average Log", "setting": "[3]; 60 μg/ml oxacillin + MSM (% in label), 24 hours", "value": 5.5, "unit": "Log"}, {"measurement": "survival (cfu/ml)", "setting": "[3]; 60 μg/ml oxacillin + MSM (% in label), 24 hours, triplicate platings", "value": ">3.3 × 10^5 cfu/ml"}, {"measurement": "survival, Average Log", "setting": "[3]; 60 μg/ml oxacillin + MSM (% in label), 48 hours", "value": 5.5, "unit": "Log"}, {"measurement": "survival (cfu/ml)", "setting": "[3]; 60 μg/ml oxacillin + MSM (% in label), 48 hours, triplicate platings", "value": ">3.3 × 10^5 cfu/ml"}, {"measurement": "survival, Average Log", "setting": "[3]; 60 μg/ml oxacillin + MSM (% in label), 72 hours", "value": 5.5, "unit": "Log"}, {"measurement": "survival (cfu/ml)", "setting": "[3]; 60 μg/ml oxacillin + MSM (% in label), 72 hours, triplicate platings", "value": ">3.3 × 10^5 cfu/ml"}, {"measurement": "survival, Average Log", "setting": "[3]; 60 μg/ml oxacillin + MSM (% in label), 96 hours", "value": 5.5, "unit": "Log"}, {"measurement": "survival (cfu/ml)", "setting": "[3]; 60 μg/ml oxacillin + MSM (% in label), 96 hours, triplicate platings", "value": ">3.3 × 10^5 cfu/ml"}, {"measurement": "survival, Average Log", "setting": "[3]; 60 μg/ml oxacillin + MSM (% in label), 120 hours", "value": 5.5, "unit": "Log"}, {"measurement": "survival (cfu/ml)", "setting": "[3]; 60 μg/ml oxacillin + MSM (% in label), 120 hours, triplicate platings", "value": ">3.3 × 10^5 cfu/ml"}, {"measurement": "decrease in colony forming units from the initial inoculums value", "setting": "[3]; oxacillin alone, 12 μg/ml, 30 μg/ml and 60 μg/ml", "value": "no significant decrease in colony forming units"}]}
